Reference: patent US20110142873A1 (priority 2006, published 2011)

Legend:
[1] = test system: E7-expressing TC-1 tumors; set-up: species or system C57BL/6 mice; settings: mouse, in vivo, sc
[2] = test system: E7-specific CD8-positive T lymphocytes; set-up: species or system C57Bl/6 mice; settings: mouse, in vivo
[3] = test system: E7-expressing TC-1.K tumor cells; experiment: Regression of large, established TC-1 tumors treated from day 28; set-up: species or system C57Bl/6 mice; settings: mouse, in vivo
E7 and HspE7 = test system: E7 and HspE7; set-up: species or system C57Bl/6 female mice; settings: mouse, in vivo

Row | Substance | anti-tumor activity [1] | biological activity of immune stimulant administered in the absence of HspE7 [2] | regression of large, established tumors [3] | antibody response to E7 and HspE7 (E7 and HspE7)
1 | PolyI:C | no effect on tumor growth | did not display this activity | – | –
2 | PolyICLC | – | did not display this activity | no regression | did not produce an antibody response
